5 compounds from ChEMBL document CHEMBL3593223, “Neolignans with a Rare 2-Oxaspiro[4.5]deca-6,9-dien-8-one Motif from the Stem Bark of Cinnamomum subavenium” (J Nat Prod, 2015) can be followed below.

pIC50: −log10 of the molar value.

One data set concerns RAW264.7. Description: Antiinflammatory activity in mouse RAW264.7 cells assessed as inhibition of LPS-induced nitric oxide production after 24 hrs by Griess assay. It is filed as functional, cell-based. The following applies: RAW264.7, 24 h. (The Griess reaction detects nitrite, a stable product of nitric oxide.)
The nature of data set [1]: Cytotoxicity against mouse RAW264.7 cells assessed as survival rate at 200 uM after 48 hrs by MTT assay in absence of LPS relative to control. The class given is cell-based. The following applies: read-out: Survival. In general terms: Tetrazolium assays rely on reduction of a dye to a coloured formazan, in cell work by metabolically active cells.
Data set [2] is described as follows: Cytotoxicity against mouse RAW264.7 cells assessed as survival rate at 200 uM after 48 hrs by MTT assay in presence of LPS relative to control. It is filed as cell-based. The following applies: read-out: Survival.

In general, pIC50 refers to the IC50 on a negative log10 scale, so that one unit is a factor of ten. Turning to `COC1=CC2(C=C(OC)C1=O)[C@@H](CO)[C@H](c1cc(OC)c(O)c(OC)c1)O[C@H]2[C@H](O)CO`, the pIC50 with RAW264.7 was 5.37. Moreover, the viability at 48 h, 200 µM was 102% in data set [1] and 111% in data set [2].
In the case of `COC1=CC2(C=C(OC)C1=O)[C@H](CO)[C@@H](c1ccc(O)c(OC)c1)O[C@@H]2[C@@H](O)CO`, the pIC50 in the data set with RAW264.7 is 4.75. Also, the viability at 48 h, 200 µM in data set [1] is 98%; in data set [2] it was 104%.
Regarding `COC1=CC2(C=C(OC)C1=O)[C@@H](CO)[C@H](c1ccc(O)c(OC)c1)O[C@H]2[C@H](O)CO`, the pIC50 in the data set on RAW264.7 is 5.25. In addition, the viability at 48 h, 200 µM in data set [1] is 99%; in data set [2], 90%.
As to `COC1=CC2(C=C(OC)C1=O)[C@H](CO)[C@@H](c1cc(OC)c(O)c(OC)c1)O[C@@H]2[C@@H](O)CO`, in the data set with RAW264.7, the pIC50 was 4.82. For the same compound, the results for the viability at 48 h, 200 µM in data set [1] and in data set [2] were 101% and 109%, respectively.
For the compound `C[C@@H]1C[C@H]2[C@@H]3CCC4=CC(=O)C=C[C@]4(C)[C@@]3(F)[C@@H](O)C[C@]2(C)[C@@]1(O)C(=O)CO` [DEXAMETHASONE], the pIC50 with RAW264.7 is 6.20. Moreover, the viability at 48 h, 200 µM was determined as 91% in data set [1] and 100% in data set [2].
